Assay results as given in patent publication EP1925625A2, “Method for screening modulators of mitochondrial functionning and new modulators obtained” (Theraptosis S.A., priority 2002, dated 2008).

Legend:
[1] = tested on: purified mouse liver mitochondria; experiment: Flow cytometric (real-time FCM) analysis of mitochondrial morphology (FSC/SSC) on isolated mitochondria; conditions: for changes of mitochondrial size (FSC) and structure (SSC): 1-30 µM Calcium, 20 µM CCCP or alamethicin added to isolated mitochondria; for effect on alamethicin induced MMP: pre-treatment with inhibitor, then alamethicin (5 µg/ml)
Description: (§1) Liver mitochondria were isolated from 3-4 weeks old Balb-c mice (IFFA CREDO, Saint Germain sur l'Arbresle, France). Animals were fasted overnight before being killed by […] dislocation. Liver mitochondria were prepared as described (Jacotot, 2000). All steps were carried out at 4°C. Finally, the organelles were resuspended in 'swelling buffer', composed by 200 mM sucrose, 5 mM succinate, 10 mM Tris-MOPS (pH 7.4), 1 mM H3PO4, 2 µM Rotenone, and 10 µM EGTA at pH=7.4. Spectrophotometric and flow cytometric analyses were performed in this buffer. The protein content of isolated mitochondria was determined by the Bradford assay.
Fluorescence-activated flow cytometry was performed using a 3-color FACSCalibur cytometer equipped with a 15 mW air-cooled 488 nm argon laser (Becton Dickinson, San Jose, CA). Mitochondria analyses were performed after appropriate settings of the Forward angle light scatter (FSC) - Side angle light scatter (SSC) detectors (see Fig. 1). Discrimination between mitochondria and cellular debris and noise background was performed by an appropriate gating on FSC-SSC scatter plots (Fig. 1)(Radcliff G, Jaroszeski MJ 1998 Methods Mol Biol 91:1-24 Basics of flow cytometry). Systematic confirmation of the validity of this gating was obtained by a labeling of mitochondria with the ΔΨm-insensitive mitochondrial dye MitoTracker® Green (MTG, Molecular Probes, Eugene, OR) (Jacotot et al., 2001). Briefly mitochondria (1.5 µg proteins) were respuspended in 400 µl swelling buffer containing 200 nM MTG for 15 min at room temperature. The organelles were immediately analyzed on the cytometer with the CellQuest Pro software (Becton Dickinson). MTG fluorescence was collected in the FL-1 channel (530 +/- 15 nm) and analyzed in logarithmic amplifier mode, using the PMT at a voltage adjusted to 907. Data from 20,000 gated mitochondria were recorded and analyzed.
Mitochondrial size was analyzed through the light scattered by the organelles at low angle using the Forward scatter (FSC) photodiode. Signals were collected using the E-00 setting, with a logarithmic amplification gain of 5.41. Mitochondrial structure was evaluated by the light scattered in the perpendicular direction. It was assessed by the sensitive Side scatter (SSC) photomultiplier tube (PMT), using a voltage of 581, and a linear amplification gain adjusted to 4.27. The morphological changes related to swelling of purified mitochondria were monitored by the increase in mitochondrial size (FSC) and the decrease in the organelle structure (SSC) using the CellQuest Pro software. The FSC/SSC ratio was calculated by the FCS Assistant software and permitted to integrate both variations in size and structure into only one parameter.
Fixed-time analyses were performed on mitochondrial samples containing 10 µg proteins in 100 µl of swelling buffer. Samples were submitted to MPP-inducing reagents for 30 min at 25°C. Samples were immediately analyzed by flow cytometry, and data from 20.000 mitochondria were recorded. The percentage of specific swelling determined on forward scatter was calculated as follows; (FSCCa2+ - FSCReagent ) x 100 / (FSCCa2+ - FSCCo), were FSCCa2+, FSCReagent and FSCCo correspond to the FSC values obtained for CaCl2- treated, reagent - treated and untreated mitochondria respectively. Similar calculation was used to determine the percentage of specific swelling on SSC and FSC/SSC ratio values.
Real-time experiments were performed on mitochondrial samples containing 1.5 µg proteins in 800 µl (= 2 ng / […]l) of swelling buffer. Samples were acquired on the flow cytometer for 5 minutes to record basal morphological criteria. Then reagents were added to samples, and variations in light scattering were recorded for the following 15 minutes. The sample flow rate was settled to 12 µl +/- 3 µl / min for both fixed- and real-time analyses. […]

[2] = tested on: purified mouse liver mitochondria; experiment: Flow cytometric analysis of mitochondrial transmembrane potential (JC-1) on isolated mitochondria; conditions: for changes of JC-1 fluorescence (ΔΨm): real-time, 20 µM mClCCP, 30 µM Ca2+ or alamethicin
Description: as §1
Mitochondrial transmembrane potential (ΔΨm) was assessed by 5,5',6,6',-tetracholoro-1,1,3,3'-tetraethylbenzimidazolyl carbocyanine iodide (JC-1, Molecular Probes) incorporation. This potential-sensitive cationic dye accumulates in the mitochondrial matrix according to the Nernst equation (Reers et al., 1991). JC-1 green fluorescence, associated with JC-1 monomers was collected in the FL-1 channel. JC-1 orange fluorescence, associated with the formation of J-aggregates was collected in the FL-2 channel (585 +/- 21 nm) (Reers et al, 1991). Both fluorescences were recorded in logarithmic amplifier mode, using the PMT at a voltage adjusted to 907 and 622 respectively. Spectral overlap was avoided by adjusting compensation network as follows: FL1 - 18.5% FL2 and FL2 - 25.4% FL1. The JC-1 orange green fluorescence ratio was calculated with the FCS Assistant software.
Fixed-time detection of ΔΨM was performed on mitochondrial samples containing 10 µg proteins in 100 µl of swelling buffer. Samples were submitted to MPT-inducing drugs for 15 min at 25°C, and JC-1 was added at 800 nM for 15 min at 37°C in the dark. Samples were immediately analyzed by flow cytometry, and data from 20.000 mitochondria (gated on FSC-SSC parameters) were recorded. This assay permitted to quantify the percentage of highly energized mitochondria (with both orange and green fluorescence) and depolarized mitochondria (with green fluorescence only) as depicted in part C2 of Fig.1.
Real-time monitoring of ΔΨm was performed on mitochondrial samples containing 1.5 µg proteins in 400 µl of swelling buffer. JC-1 loading was performed at 400 nM in for 15 minutes at 37°C. […] Then drugs were added to the sample, and ΔΨm variations were recorded for the following 16 minutes. Depolarization curves were drawn as previously indicated for swelling curves; the time scale was divided into discrete periods of 1 minute and the mean of JC-1 orange and JC-1 green fluorescence of the corresponding mitochondrial subsets was calculated by the CellQuest Pro software and exported into the Microsoft Excel software.

[3] = 50 µM BA or 10 µM CsA 5 minutes, then 30 min Ca2+ (30 µM)

| Compound | changes of mitochondrial size (FSC) and structure (SSC) [1] | changes of JC-1 fluorescence (ΔΨm) [2] | effect on alamethicin induced MMP [1] | effect on Ca2+ induced SSC decrease [1, 3] | effect on Ca2+ induced ΔΨm loss [2, 3] |
| --- | --- | --- | --- | --- | --- |
| N#CC(C#N)=NNc1cccc(Cl)c1 [CCCP, carbonyl cyanide meta-chlorophenylhydrazone] | low but significant granularity (SSC) decrease without detectable size (FSC) changes | rapid decrease in JC-1 orange fluorescence and a slow decrease in monomeric JC-1 green fluorescence |  |  |  |
| alamethicin | simultaneous FSC increase and SSC decrease | a decrease in JC-1 orange fluorescence and a significant increase in JC-1 green fluorescence |  |  |  |
| N.N.N.N.N.N.N.N.N.N.N.N.N.N.[Cl-].[Cl-].[Cl-].[Cl-].[Cl-].[Cl-].[O-2].[O-2].[Ru+3].[Ru+3].[Ru+4] [Ruthenium red] |  |  | not affected |  |  |
| CO[C@H](C/C=C\C=C\CC/C=C/C[C@H](C)/C=C/C(=C\C(=O)O)CC(=O)O)/C(C)=C\C=C(/C)C(=O)O [bongkrekic acid] |  |  | not affected | partly affect | strongly reduces |
| [Ca+2].[Cl-].[Cl-] [Calcium, CaCl2] | dose-dependent SSC decrease and FSC increase | a decrease in JC-1 orange fluorescence and a significant increase in JC-1 green fluorescence |  |  |  |
